# Experimental data as given in US20250109156A1, “INDOLE-CONTAINING MACROCYCLIC COMPOUNDS AND USES THEREOF” (JIANGSU AOSAIKANG PHARMACEUTICAL CO., LTD., priority 2022, published 2025).
# pIC50: −log10 of the molar value.
# What was measured:
# OVCAR3 cells = assay: In vitro OVCAR3 cell activity assay (CellTiter-Glo proliferation); assay type: cell-based; details: Homo sapiens, OVCAR-3, 72 h, 3 days incubation
# Protocol: Experimental Example 5: In Vitro OVCAR3 Cell Activity Assay
# 1640 culture medium, fetal bovine serum, penicillin/streptomycin antibiotics were purchased from WISENT. CellTiter-Glo (cell viability chemiluminescence detection reagent) reagent was purchased from Promega. OVCAR3 cell line was purchased from Nanjing Cobioer Biosciences Co. Ltd. Nivo multimode microplate reader (PerkinElmer).
# The OVCAR3 cells were seeded in a white 96-well plate, with 80 μL of cell suspension per well, containing 2000 OVCAR3 cells each. The cell plate was incubated overnight in a CO2 incubator.
# The compounds to be tested were 5-fold diluted with a multi-channel pipette to the 8th concentration, i.e., diluted from 200 μM to 0.512 nM, and the experiment was set up in duplicate wells. 78 μL of culture medium was added to an intermediate plate, and then 2 μL of gradient diluted compound per well was transferred to the intermediate plate according to the corresponding position. After mixing well, the compound was transferred to the cell plate at 20 μL per well. The concentration of the compound transferred to the cell plate ranged from 1 μM to 0.0026 nM. The cell plate was incubated in a CO2 incubator for 3 days. Another cell plate was prepared to measure the signal on the day of drug addition as the maximum value (denoted as Max in the equation below) for data analysis. 25 μL of cell viability chemiluminescence detection reagent was added to each well of this cell plate, and incubated at room temperature for 10 minutes to stabilize the luminescent signal. A multimode microplate reader was used for reading. […]
# Using the equation (Sample−Min)/(Max−Min)*100% to convert the raw data into inhibition rate, the IC50 value may be obtained by curve fitting with four parameters (obtained by “log (inhibitor) vs. response—Variable slope” mode in GraphPad Prism). Table 1 provides the inhibitory activity of the compounds of the present disclosure on the proliferation of OVCAR3 cells.
# CDK7/CyclinH/MAT1 = CDK7/CyclinH/MAT1 (Homo sapiens (Human), UniProt P50613); assay: In vitro CDK7/CyclinH/MAT1 enzyme activity assay (TR-FRET); assay type: biochemical; details: Ulight-MBP peptide, 25° C. 60 minutes
# CDK7/CyclinH/MAT1, sequence (P50613 whole entry): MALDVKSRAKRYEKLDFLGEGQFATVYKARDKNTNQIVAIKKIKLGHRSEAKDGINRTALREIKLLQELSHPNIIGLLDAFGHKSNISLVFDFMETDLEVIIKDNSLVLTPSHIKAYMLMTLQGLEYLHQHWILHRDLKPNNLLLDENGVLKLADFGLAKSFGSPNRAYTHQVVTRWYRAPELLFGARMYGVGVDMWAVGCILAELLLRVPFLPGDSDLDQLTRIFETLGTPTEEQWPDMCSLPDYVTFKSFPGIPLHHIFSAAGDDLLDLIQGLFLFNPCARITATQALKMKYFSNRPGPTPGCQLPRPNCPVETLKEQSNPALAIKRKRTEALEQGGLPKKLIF
# CDK7/CyclinH/MAT1, sequence (P51946 whole entry partner): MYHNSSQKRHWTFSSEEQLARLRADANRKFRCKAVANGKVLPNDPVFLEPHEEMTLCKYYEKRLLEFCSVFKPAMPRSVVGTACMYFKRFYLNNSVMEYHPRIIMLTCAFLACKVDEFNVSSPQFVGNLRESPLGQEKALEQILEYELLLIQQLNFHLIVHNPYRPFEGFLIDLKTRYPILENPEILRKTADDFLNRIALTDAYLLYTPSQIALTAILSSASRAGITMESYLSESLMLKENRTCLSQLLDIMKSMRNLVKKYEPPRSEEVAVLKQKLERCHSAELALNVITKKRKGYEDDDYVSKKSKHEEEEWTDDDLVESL
# CDK7/CyclinH/MAT1, sequence (P51948 whole entry partner): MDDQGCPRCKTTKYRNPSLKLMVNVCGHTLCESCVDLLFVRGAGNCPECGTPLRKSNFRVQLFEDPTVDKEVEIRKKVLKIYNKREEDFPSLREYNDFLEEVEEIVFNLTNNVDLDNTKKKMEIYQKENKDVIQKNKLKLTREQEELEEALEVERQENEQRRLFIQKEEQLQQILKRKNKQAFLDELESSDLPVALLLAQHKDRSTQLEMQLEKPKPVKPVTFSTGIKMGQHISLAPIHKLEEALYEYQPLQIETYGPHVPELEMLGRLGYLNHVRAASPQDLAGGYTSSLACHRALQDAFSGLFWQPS
# Protocol: Experimental Example 1: In Vitro CDK7/[…] Enzyme Activity Assay
# CDK7/CyclinH/MAT1 was purchased from CARNA. Ulight-MBP peptide, Eu-MBP antibody, and 1× detection buffer were purchased from PerkinElmer. High-purity ATP was purchased from Promega. EDTA was purchased from Sigma. Nivo multimode microplate reader (PerkinElmer).
# Preparation of kinase buffer: the kinase buffer containing 50 mM HEPES, 1 mM EDTA, 10 mM MgCl2, 0.01% Brij-35, pH 7.4.
# 2.38 g of HEPES, 58 mg of EDTA, 406 mg of MgCl2, and 20 mg of Brij-35 were added to 200 mL of buffer, and the pH was adjusted to 7.4.
# 100 μL of 1 M EDTA stock solution was mixed with 0.625 μL of 1× detection buffer and 1725 μL of distilled water to prepare the stop solution.
# Enzyme, Ulight-MBP peptide, ATP, and inhibitors were diluted with the kinase buffer.
# The Eu-MBP antibody was diluted to a concentration of 8 nM/L using detection buffer.
# The compounds to be tested were 5-fold diluted with a multi-channel pipette to the 8th concentration, i.e., from 40 μM to 0.512 nM, with a final DMSO concentration of 4%. The experiment was set up in duplicate wells. 2.5 μL of each concentration gradient of the inhibitor was added to the microplate, followed by 5 μL of CDK7/CyclinH/MAT1 enzyme (5 ng), and 2.5 μL of a mixture of substrate and ATP (4 mM ATP, 50 nM Ulight-MBP peptide). At this point, the final concentration gradient of the compound was 10 μM diluted to 0.128 nM. The reaction system was reacted at 25° C. for 60 minutes. After the reaction, 5 μL of stop solution was added to each well, and the reaction was continued at 25° C. for 5 minutes. After stopping the reaction, 5 μL of Eu-MBP antibody dilution was added to each well, and the mixture was reacted at 25° C. for 60 minutes. Data were then collected using the PerkinElmer Nivo multimode microplate reader in TR-FRET mode (excitation wavelength: 320 nm, emission wavelength: 665 nm).
# Using the equation (Sample−Min)/(Max−Min)*100% to convert the raw data into inhibition rate, the IC50 value may be obtained by curve fitting with four parameters (obtained by “log (inhibitor) vs. response—Variable slope” mode in GraphPad Prism). Table 1 provides the CDK7/CyclinH/MAT1 enzymatic inhibitory activity of the compounds of the present disclosure.
# [1] = test system: HCC70 breast cancer xenograft (CDX); assay: In vivo efficacy study, HCC70 breast cancer CDX model; design: species or system BALB/c nude mice; details: for Animal tolerance: BALB/c nude mice, HCC70 CDX
# Protocol: Experimental Example 6: In Vivo Efficacy Study
# In vivo efficacy experiments were conducted on BALB/c nude mice subcutaneously implanted with human tumor cell line-based xenograft (CDX) derived from HCC70 breast cancer patients.
# BALB/c nude mice, female, 6 to 8 weeks old, weighing approximately 19 to 23 g, were maintained in a special pathogen-free environment in individual ventilated cages (6 mice per cage). All cages, bedding, and water were disinfected before use. All animals had free access to a standard certified commercial laboratory diet. A total of 36 mice, purchased from the Laboratory Animal Department of the Shanghai Institute of Planned Parenthood Research (formerly Shanghai SIPPR-BK), were used for the study. Each mouse was injected with 10×10^6 HCC70 cells on the right side of the neck, with an injection volume of 0.2 mL, and the cell suspension was in a 1:1 ratio of PBS and Matrigel. When the average tumor volume reached approximately 179 mm^3, random grouping was performed, and dosing was initiated.
# Tumor volume was measured twice a week with a two-dimensional caliper, and the volume was measured in mm^3 and calculated by the following equation: V=0.5 a×b^2, where a and b are the long and short diameters of the tumor, respectively.
structure (smiles),measurement,setting,value
CN1CCCCN2CCCC[C@@H](C2)Nc2ncc(C(F)(F)F)c(n2)-c2c[nH]c3c(P(C)(C)=O)c(ccc23)C1=O [Compound 3],pIC50,OVCAR3 cells,9.22
same,pIC50,CDK7/CyclinH/MAT1,8.96
CP(C)(=O)c1c2ccc3c(c[nH]c13)-c1nc(ncc1C(F)(F)F)N[C@H]1CCCN(CCCCCCO2)C1 [Compound 4],pIC50,OVCAR3 cells,9.70
same,pIC50,CDK7/CyclinH/MAT1,8.80
CP(C)(=O)c1c2ccc3c(c[nH]c13)-c1nc(ncc1C(F)(F)F)N[C@H]1CCCN(CCCCNC2=O)C1 [Compound 5],pIC50,OVCAR3 cells,9.70
same,Animal tolerance,[1]; dose 3 mg/kg,Good
same,Tumor volume Day 0,[1]; dose 3 mg/kg,179 mm^3
same,Tumor volume Day 7,[1]; dose 3 mg/kg,260 mm^3
same,Tumor volume Day 14,[1]; dose 3 mg/kg,305 mm^3
same,Tumor volume Day 21,[1]; dose 3 mg/kg,230 mm^3
same,pIC50,CDK7/CyclinH/MAT1,8.92
CP(C)(=O)c1c2ccc3c(c[nH]c13)-c1nc(ncc1C(F)(F)F)N[C@H]1CCCCN(CCCCNC2=O)C1 [Compound 6],pIC50,OVCAR3 cells,9.22
same,Animal tolerance,[1]; dose 3 mg/kg,Good
same,Tumor volume Day 0,[1]; dose 3 mg/kg,179 mm^3
same,Tumor volume Day 7,[1]; dose 3 mg/kg,272 mm^3
same,Tumor volume Day 14,[1]; dose 3 mg/kg,344 mm^3
same,Tumor volume Day 21,[1]; dose 3 mg/kg,403 mm^3
same,pIC50,CDK7/CyclinH/MAT1,8.85
CN1CCCCN2CCC[C@@H](C2)Nc2ncc(C(F)(F)F)c(n2)-c2c[nH]c3c(P(C)(C)=O)c(ccc23)C1=O [Formate of compound 1],pIC50,OVCAR3 cells,9.52
same,Animal tolerance,[1]; dose 1.5 mg/kg,Good
same,Tumor volume Day 0,[1]; dose 1.5 mg/kg,179 mm^3
same,Tumor volume Day 7,[1]; dose 1.5 mg/kg,273 mm^3
same,Tumor volume Day 14,[1]; dose 1.5 mg/kg,178 mm^3
same,Tumor volume Day 21,[1]; dose 1.5 mg/kg,105 mm^3
same,pIC50,CDK7/CyclinH/MAT1,9.00
